Among the data in patent publication US8604217B2, “Compound, a process for its preparation, a pharmaceutical composition, use of a compound, a method for modulating or regulating serine/threonine kinases and a serine/threonine kinases modulating agent” (Selvita S.A., priority 2009, dated 2013) are IC50 values, retold here.

pIC50: −log10 of the molar value.

For assay [1], the system named is human breast adenocarcinoma MCF7 cells. The assay is described as follows: Growth inhibition test (MTS) on MCF7 cells. The format is cell-based. Conditions: Homo sapiens, MCF7, 72 hours, read-out: MCF-7 ED50. The method, then:
(§1) Two thousand cells of human breast adenocarcinoma MCF7 were inoculated into each well of a 96-well microplate (manufactured by Corning Corp.), and using DMEM medium (culture medium) containing 10% fetal calf serum (FCS). Next day, a dimethyl sulfoxide (DMSO) solution of each test compound prepared in a concentration of 10 mmol/L was further diluted with culture medium to the desired concentrations (0.1, 0.5, 1, 2.5, 5 and 10 micromol/L), and the diluted solution was added to each well. The individual wells were further cultured in 5% carbon dioxide at 37° C. for 72 hours. After completion of the culture, 10 μl MTS (3-(4,5-Dimethyl-2-thiazolyl)-5-(carboxymethoxyphenyl)-2-(4-sulfophenyl)-2H-tetrazolium, inner salt assay (CellTiter96® AQueous One Solution Cell Proliferation Assay, Promega) was added to each well, and culturing was performed in 5% carbon dioxide at 37° C. for 2 hours. Using a microplate spectrophotometer (Synergy 2 multi-mode microplate reader (BioTek)), the absorbance of each well was measured at 490 nm. The value for cells not incorporated with a test compound was designated as 100%. By comparing these values with the absorbance difference obtained at the well in which each test compound was added, the cell viability (% viability) after treatment with the test compound was calculated.

A further assay deals with PIM-1 (Homo sapiens (Human), UniProt P11309). In words: Luminometric kinase assay for PIM1 kinase (Kinase-Glo). The assay is classed as biochemical. Conditions: 1 μM ATP, 25 min at RT. The gist of the method: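 Kinase and substrate reacted in 8 mM MOPS/NaOH pH7.0, 0.2 mM EDTA, 2 mM MgCl2 with 1 μM ATP for 25 min at RT, compounds serially diluted from 1 μM. Remaining ATP read by Kinase-Glo luminescence; IC50 from variable-slope sigmoidal fit.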
On the technique in general: Kinase-Glo measures the ATP left after a reaction by luminescence.

Assay [2] concerns human prostate adenocarcinoma PC3 cells. The assay is described as follows: Growth inhibition test (MTS) on PC3 cells. The assay is classed as cell-based. Conditions: Homo sapiens, PC-3, 72 hours, read-out: PC-3 ED50.
Assay [3] has as its system human hepatoma HepG2 cells. The assay is described as follows: Growth inhibition test (MTS) on HepG2 cells. The format is cell-based. Conditions: 72 hours, read-out: HepG2 ED50. The gist of the method: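 HepG2 cells in DMEM with 10% FCS were exposed for 72 h at 37 °C, 5% CO2, to 0.1, 0.5, 1, 2.5, 5 and 10 micromol/L compound. MTS was then added for 2 h and absorbance read at 490 nm. % viability was calculated relative to untreated cells set at 100%.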

The test system of assay [4] is human erytroblast leukemia HEL-92.1.7 cells. In words: Growth inhibition test (MTS) on HEL-92.1.7 cells. The assay is classed as cell-based. Conditions: 72 hours, read-out: HEL92 ED50. As to the method:
as §1, with “Ten” for “Two”, “erytroblast leukemia HEL-92.1.7” for “breast adenocarcinoma MCF7”, “Corp.)” for “Corp.), and”, “RPMI 1640” for “DMEM”

Assay [5] concerns human myelomonocytic, biphenotypic leukemia MV4-11 cells. The assay is described as follows: Growth inhibition test (MTS) on MV4-11 cells. The format is cell-based. Conditions: Homo sapiens, MV4-11, 72 hours, read-out: MV-4-11 ED50. The gist of the method:
MV4-

The subject of assay [6] is human acute lymphocytic leukemia E6.1 Jurkat cells. The assay is described as follows: Growth inhibition test (MTS) on E6.1 Jurkat cells. The assay is classed as cell-based. Conditions: 72 hours, read-out: Jurkat ED50. The method, then:
as §1, with “Twenty” for “Two”, “acute lumphocytic leukemia E6.1 Jurkat” for “breast adenocarcinoma MCF7”, “Corp.)” for “Corp.), and”, “[…]” for “DMEM”

PIM-1, sequence (P11309 whole entry): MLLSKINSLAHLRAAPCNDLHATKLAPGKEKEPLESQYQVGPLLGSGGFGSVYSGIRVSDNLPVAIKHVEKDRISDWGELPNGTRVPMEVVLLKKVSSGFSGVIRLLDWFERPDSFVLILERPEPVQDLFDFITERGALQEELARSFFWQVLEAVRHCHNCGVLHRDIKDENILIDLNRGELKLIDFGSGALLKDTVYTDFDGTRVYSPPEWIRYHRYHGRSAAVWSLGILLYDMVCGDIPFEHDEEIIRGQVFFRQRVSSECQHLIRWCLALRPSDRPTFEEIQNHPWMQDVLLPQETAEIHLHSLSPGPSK

For `N[C@H]1CCCC[C@H]1Nc1nc2c(Br)c(Br)c(Br)c(Br)c2[nH]1` (relative stereo) [Compound 304cis, cis N1-(4,5,6,7-tetrabromo-1H-benzo[d]imidazol-2-yl)cyclohexane-1,2-diamine], the pIC50 in assay [1] is 6.15; on PIM-1 it was 8.16; in assay [2], 5.83; in assay [3], 5.87; in assay [4], 5.74; in assay [5] it was 6.48.
In the case of `Brc1c(Br)c(Br)c2[nH]c(N3CCCNCC3)nc2c1Br` [Compound 260, 4,5,6,7-tetrabromo-2-(1,4-diazepan-1-yl)-1H-benzo[d]imidazole], the pIC50 in assay [1] was 5.25; in assay [6], 5.27; on PIM-1 it was 7.52; in assay [2] it was 5.25; in assay [3], 5.15; in assay [5] it was 5.84.
Consider `Brc1c(Br)c(Br)c2[nH]c(NC3CCCCCCC3)nc2c1Br` [Compound 261, 4,5,6,7-tetrabromo-N-cyclooctyl-1H-benzo[d]imidazol-2-amine], for which the pIC50 is 5.31 in assay [1]; 5.34 in assay [6]; 6.86 on PIM-1; 5.49 in assay [2]; 5.37 in assay [3]; 5.47 in assay [5].
For the compound `CN1CCC(N(C)CC(Nc2nc3c(Br)c(Br)c(Br)c(Br)c3[nH]2)c2ccccc2)CC1` (stereo not shown) [Compound 263, N-(4,5,6,7-tetrabromo-1H-benzo[d]imidazol-2-yl)-N′-methyl-N′-(1-methylpiperidin-4-yl)-1-phenylethane-1,2-diamine], the pIC50 was 5.56 in assay [1]; 5.59 in assay [6]; 7.32 at PIM-1; 5.58 in assay [2]; 5.58 in assay [3]; 5.62 in assay [5].
Turning to `CCN1CCCC1CNc1nc2c(Br)c(Br)c(Br)c(Br)c2[nH]1` (stereo not shown) [Compound 265a, 4,5,6,7-tetrabromo-N-((1-ethylpyrrolidin-2-yl)methyl)-1H-benzo[d]imidazol-2-amine], the pIC50 in assay [1] is 5.51; in assay [6], 5.44; on PIM-1 it was 7.17; in assay [2], 5.34; in assay [3], 5.74; in assay [5] it was 5.65.
On to `CN(C)CC(CNc1nc2c(Br)c(Br)c(Br)c(Br)c2[nH]1)C(O)c1ccccc1` (stereo not shown) [Compound 272, 2-((4,5,6,7-tetrabromo-1H-benzo[d]imidazol-2-ylamino)methyl)-3-(dimethylamino)-1-phenylpropan-1-ol], for which the pIC50 was 5.35 in assay [1]; 5.56 in assay [6]; 7.36 at PIM-1; 5.31 in assay [2]; 5.65 in assay [3]; 5.62 in assay [5].
Regarding `N[C@@H]1CCCC[C@H]1Nc1nc2c(Br)c(Br)c(Br)c(Br)c2[nH]1` [Compound 304RR, (1R,2R)-N1-(4,5,6,7-tetrabromo-1H-benzo[d]imidazol-2-yl)cyclohexane-1,2-diamine], the pIC50 is 5.63 in assay [1]; 5.50 in assay [6]; 8.28 at PIM-1; 5.50 in assay [2]; 5.58 in assay [3]; 6.60 in assay [5].
For the compound `N[C@H]1CCCC[C@@H]1Nc1nc2c(Br)c(Br)c(Br)c(Br)c2[nH]1` [Compound 304SS, (1S,2S)-N1-(4,5,6,7-tetrabromo-1H-benzo[d]imidazol-2-yl)cyclohexane-1,2-diamine], the pIC50 in assay [1] was 5.30; in assay [6], 5.29; on PIM-1, 7.94; in assay [2] it was 5.29; in assay [3] it was 5.49; in assay [5] it was 6.01.
Consider `COc1ccc(Nc2nc3c(Br)c(Br)c(Br)c(Br)c3[nH]2)cc1OC` [Compound 307, 4,5,6,7-tetrabromo-N-(3,4-dimethoxyphenyl)-1H-benzo[d]imidazol-2-amine], for which the pIC50 is 5.03 in assay [1]; 5.05 in assay [6]; 6.54 at PIM-1; 5.08 in assay [2]; 5.91 in assay [3]; 5.22 in assay [5].
With `Nc1ccccc1Nc1nc2c(Br)c(Br)c(Br)c(Br)c2[nH]1` [Compound 332, N1-(4,5,6,7-tetrabromo-1H-benzo[d]imidazol-2-yl)benzene-1,2-diamine], the pIC50 is 7.79 on PIM-1; 5.12 in assay [2]; 5.18 in assay [3]; 5.50 in assay [4]; 5.49 in assay [5].
Turning to `Nc1cc(F)c(F)cc1Nc1nc2c(Br)c(Br)c(Br)c(Br)c2[nH]1` [Compound 333, N1-(4,5,6,7-tetrabromo-1H-benzo[d]imidazol-2-yl)-4,5-difluorobenzene-1,2-diamine], the pIC50 in assay [1] is 5.32; on PIM-1, 7.31; in assay [2], 5.60; in assay [3], 5.34; in assay [4], 5.49; in assay [5], 5.41.
Take `NCc1cccc(CNc2nc3c(Br)c(Br)c(Br)c(Br)c3[nH]2)c1` [Compound 354, N-(3-(aminomethyl)benzyl)-4,5,6,7-tetrabromo-1H-benzo[d]imidazol-2-amine]: the pIC50 in assay [1] was 5.51; at PIM-1, 6.97; in assay [2], 5.07; in assay [3], 5.58; in assay [4] it was 5.16; in assay [5], 5.35.
Consider `CNCCCN(Cc1ccccc1)c1nc2c(Br)c(Br)c(Br)c(Br)c2[nH]1` [Compound 372, N-benzyl-4,5,6,7-tetrabromo-N-(3-(methylamino)propyl)-1H-benzo[d]imidazol-2-amine], for which the pIC50 is 5.60 in assay [1]; 7.34 on PIM-1; 5.62 in assay [2]; 5.88 in assay [3]; 5.40 in assay [4]; 5.78 in assay [5].
`CCOC(=O)N1CCN(c2nc3c(Br)c(Br)c(Br)c(Br)c3[nH]2)CC1` [Compound 376, ethyl 4-(4,5,6,7-tetrabromo-1H-benzo[d]imidazol-2-yl)piperazine-1-carboxylate]: the pIC50 is 5.18 in assay [2], 5.03 in assay [3], 5.10 in assay [4] and 5.29 in assay [5].
The like results for `CCOC(=O)N1CCN(c2nc3c(Br)c(Br)c(Br)c(Br)c3n2C(=O)OCC)CC1` [Compound 377, ethyl 2-(4-(ethoxycarbonyl)piperazin-1-yl)-4,5,6,7-tetrabromo-1H-benzo[d]imidazole-1-carboxylate] were, in that order, 5.22, 5.01, 5.01 and 5.23.
